Reference: US6822064B1, “Polymerizable macromers and preparation thereof” (Council of Scientific and Industrial Research, priority 2003, dated 2004)

Molecular target: lysozyme (Gallus gallus, UniProt P00698)
Test: Estimation of relative inhibition of lysozyme (Micrococcus lysodeikticus substrate, absorbance at 450 nm)
Assay type: biochemical
Conditions: for ligand concentration at maximum inhibition: ligand concentration at which the maximum inhibition is achieved; for Imax: maximum relative inhibition of lysozyme
Source text: This example describes the estimation of inhibition of lysozyme by monomers, oligomers and macromer. I50 denotes the concentration of the ligand containing NAG at which 50% of the highest achievable inhibition is achieved. Imax denotes the ligand concentration at which the maximum inhibition is achieved.
Micrococcus lysodeikticus is a substrate for the enzyme lysozyme. Relative binding of macromers was estimated by using a procedure reported by Neuberger and Wilson (1967).
1.5% w/v stock solutions of macromer was prepared in 0.0066 M phosphate buffer pH 6.2 containing 0.0154 m sodium chloride and 0.008 M sodium azide. One milliliter of stock solution containing different ligand concentration was mixed with 1.6 ml of 78 μg/ml of Micrococcus lysodeikticus in a 3-ml capacity glass cuvette. The mixture was incubated for 5 minutes at 20° C. To this mixture 0.1 ml of lysozyme (27 μg/ml) was added and mixed thoroughly. The relative absorbance at 450 nm (Δ450) was recorded for 30 seconds. A blank reading without the ligand was noted and the change in the absorbance per second was calculated. Then relative inhibition was calculated.

lysozyme, sequence (P00698 19-147): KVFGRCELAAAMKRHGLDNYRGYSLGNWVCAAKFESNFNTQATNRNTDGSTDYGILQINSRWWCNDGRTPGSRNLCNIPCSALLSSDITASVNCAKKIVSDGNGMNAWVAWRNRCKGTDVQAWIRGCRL

Structure (SMILES)	ligand concentration at maximum inhibition [mM]	Imax	IC50 (ligand concentration at which 50% of the highest achievable inhibition is achieved, pH 6.2, 20° C., read-out: I50) [mM]
CC(=O)N[C@H]1C(O)O[C@H](CO)[C@@H](O)[C@@H]1O (some centres unmarked) [NAG, N-Acetyl Glucosamine, reference compound]	92.50	55.29	–
C=CC(=O)OC[C@H]1OC(O)[C@H](NC(C)=O)[C@@H](O)[C@@H]1O (some centres unmarked) [Ac. NAG, Acryloyl N-Acetyl Glucosamine]	14.81	50.00	14.8
